# Like-named read-outs stand apart in the source and are kept apart here.
# Legend:
# [1] = test system: chronic lymphocytic leukemia (CLL); conditions: chronic lymphocytic leukemia (CLL) ref 8; cited from earlier work
# MDA-MB-231 = assay: cells; format: cell-based; conditions: for IC50: Homo sapiens
# glioblastoma Hs683 = glioblastoma Hs683 ref 9, 10; cited from earlier work
# [2] = test system: cancer stem cells (CSCs) in MDA-MB-231 cell line; conditions: MDA-MB-231 cell line ref 12; cited from earlier work
# in vitro = format: cell-based; conditions: human
# MCF10A = assay: cells; format: cell-based; conditions: Homo sapiens, MCF-10A, read-out: IC50, cell viability
# P335 = P335 ref 6; cited from earlier work
# [3] = test system: stem-like cells with epithelial-mesenchymal transition (EMT) properties; conditions: cited from earlier work
SMILES,IC50 [1] [nM],"IC50 (MDA-MB-231; MDA-MB-231, read-out: IC50, cell viability) [nM]","IC50 (MDA-MB-231; MDA-MB-231, read-out: cytotoxicity (IC50) as quoted in text) [nM]",selectivity between cancer vs non-cancer cell line (MDA-MB-231; MDA-MB-231 vs MCF-10A),IC50 (glioblastoma Hs683) [nM],effect on CD44/CD24-positive population [2],IC50 (in vitro) [nM],IC50 (MCF10A) [nM],IC50 (P335) [nM],induction of cell death in stem-like cells with EMT properties [3]
"CC(C)=C[C@H]1C[C@H](C)[C@]2(CC[C@]3(C)C[C@H]4[C@H](C(=O)C[C@@]4(C)O)/C(C=O)=C\C[C@H]32)O1 [OpA, ophiobolin A]",1,69 ± 24,~69,~ 3 fold,620,significantly reducing the CD44/CD24-positive population,~200,198 ± 76,63,specifically induces cell death
CC(C)=CCC[C@H](C)[C@@]1(O)CC[C@]2(C)C[C@H]3[C@H](C(=O)C[C@@]3(C)O)/C(C=O)=C\C[C@H]21 [compound 2],–,–,–,–,–,significantly reducing the CD44/CD24-positive population,–,–,–,–

# Source: paper PMC7655722 (Organic letters, 2020)
